The term half-life denotes the time in which the quantity being followed falls by half. As usually defined, the solubility is how much of the substance goes into solution per volume.

The nature of one data set: in vitro. The note with it: CD-1, mouse, liver microsomes.
A short description of data set [1]: Solubility of the compound in PBS buffer at pH 7.4 after 24 hrs by LC-MS analysis. Format: physicochemical.

Values after ≈ are worked out from the molar mass of the structure shown.

Description for in vitro: Half life in CD-1 mouse liver microsomes at 1 uM by LC-MS/MS analysis

`O=C(CCC(F)(F)F)N1CCC(c2nc(-c3cccs3)no2)CC1`: the half-life at 1 µM in the data set “in vitro” is 5 min.
Take `O=C(CCC(F)(F)F)N1CCC(c2nc(-c3nccs3)no2)CC1`: the half-life at 1 µM in the data set “in vitro” was found to be 34 min. This compound also had a solubility at 24 h in data set [1] of 300 µg/mL (≈ 832 µM).
For the compound `COc1ccc2nc(-c3noc(C4CCN(C(=O)CCC(F)(F)F)CC4)n3)sc2c1`, the half-life at 1 µM in the data set “in vitro” amounted to 6 min. In data set [1], the concentration in solution (solubility at 24 h) came to 6 µg/mL (≈ 13.6 µM).
`O=C(CCC(F)(F)F)N1CCC(c2nc(-c3ccccc3)no2)CC1` had a solubility at 24 h in data set [1] of 40 µg/mL (≈ 113 µM).
In turn, `O=C(CCCC(F)(F)F)N1CCC(c2nc(-c3nccs3)no2)CC1` had a half-life at 1 µM in “in vitro” of 81 min.

(Values after ChEMBL document CHEMBL1944547, “Ethionamide boosters. 2. Combining bioisosteric replacement and structure-based drug design to solve pharmacokinetic issues in a series of potent 1,2,4-oxadiazole EthR inhibitors” (J Med Chem, 2012).)
